Test results as given in article PMC8536644, “Enigmatic mechanism of the N-vinylpyrrolidone hepatocarcinogenicity in the rat” (Archives of Toxicology, 2021).
“And” between values parts separate entries of the source, which are not always exact repeats. Equal entries are not always repeated.

Tests used:
rat lung cells = test: Comet assay, conventional (no FPG), lung; conditions: for Hedgehogs/100 cells (mean ± SD) / TI (%) (mean ± SD) / TI (%), mean of medians from 2 slides: lung, no FPG, 5 days; for TI (%), mean of medians from 2 slides: individual animals
Description: (§1) Animals were anesthetized by 3.5% isoflurane (approximately 3 min, evaporator Dräger Vapor 19.3) and then killed by cervical dislocation. The liver was removed and its left lateral lobe used for the Comet assay. The remainder of the liver was washed in saline and then in two aliquots shock frozen in liquid nitrogen and stored at − 80 °C for later examinations. Subsequently the lung was removed from the dead animal. Its left lobe was used for the Comet assay and the remainder treated as described above for the liver. Thereafter the femora were removed for the preparation of the bone marrow.
(§2) The Comet assay was performed under alkaline conditions according to the principles described by Singh et al. ([1988]) and Tice et al. ([2000]).
(§3) Liver and lung cells were obtained essentially as described by Hartmann et al. ([2004]) and by the Japanese Center for the Validation of Alternative Methods (JaCVAM [2009]). Single cells were obtained within 1 h after killing of the animals in order to minimize DNA damage during the preparation.
(§4) The organ parts (see above) were washed in mincing buffer (50 mM EDTA in HBSS [without Ca^2+ and Mg^2+] pH 7.5: DMSO 9:1 (v/v), the latter added shortly before use, stored at 4 °C), cut into 1 to 2-mm pieces in ice-cold mincing buffer and transferred to a cell sieve with 70-µm pores. The viability of the cell suspension was evaluated by the Trypan Blue Assay (Strober [2001]).
(§5) 100 µL of the obtained cell suspension was mixed at 37 °C with 900 µL Low Melting Agarose (LMA) (0.7% agarose in phosphate-buffered saline [PBS] [Biochrom, Berlin, Germany] without Ca^2+ and Mg^2+). 100 µL of this mixture was transferred to a slide, which had been coated with Normal Melting Agarose (NMA) (0.6% agarose in PBS without Ca^2+ and Mg^2+). The slides were protected with a cover slip and the agarose was hardened at approximately 4 °C. The cover slips were then removed and the slides put over night at 4 °C into lysis buffer (2.5 M NaCl, 125 mM NaOH, 127 mM EDTA, 10 mM Tris/NaOH, pH 10; 1% Triton X-100 and 10% DMSO (v/v), the latter two added before use) in order to lyse the cell membrane, nuclear membrane and remove the histone.
(§6) The then following procedures were performed in a shaded room to minimize UV-mediated DNA damage during the procedures.
(§7) Remaining lysis buffer or FPG buffer was removed by immersing/washing the slides in PBS (without Ca^2+ and Mg^2+).
The slides were then placed into the electrophoresis chamber, which was cooled and protected from light. Slides were covered with electrophoresis buffer (0.3 M NaOH, 1 mM EDTA, pH > 13) carefully avoiding air bubbles. The DNA was allowed to unwind (20 min). Thereafter the electrophoresis was started (25 V, 300 mA, […], 30 min). The slides were then washed (2 times 5 min) in neutralization buffer (0.4 M Tris/HCl, pH 7.5), dehydrated and fixed in 100% ethanol (1 min), dried at room temperature overnight and stored at room temperature protected from dust.
Quantitative evaluation of the Comet assays was performed by fluorescence microscopy after DNA staining with ethidium bromide.

[1] = system: polychromatic erythrocytes of rat bone marrow; test: Micronucleus test in rat bone marrow (OECD 474); conditions: for MN/ 1000 PCE Mean ± SD / MN/ 1000 PCE Range / PCE/1000 Erythrozyten Mean ± SD / PCE/NCE quotient (%): 5 days
Description: 13-mm filter disks with a pore size of 8 µm were placed on the bottom of 5-mL plastic syringes. Approximately 500 mg of a mixture consisting of equal parts microcrystalline cellulose (Sigmacell®, Typ 50) and alpha-cellulose fibers was added up to the 2-mL mark.
Bone marrow preparation was performed according to published methods (Romagna and Staniforth [1989]; Salamone et al. [1980]). The soft tissue was removed from the femora and the epiphyses were cut off. The bone marrow was rinsed off the diaphyses with approximately 3 mL 37 °C-warm fetal calf serum (FCS) (Biochrom, Berlin, Germany) per femur, placed on the above-described cellulose column and eluted with 3 mL of Hank's Balanced Salt Solution (HBSS) (Biochrom, Berlin, Germany) (with Ca^2+ und Mg^2+). The eluate was centrifuged at 300 g for 5 min and the pellet was suspended in […] FCS. From this suspension three portions per femur were individually placed on slides, air-dried and then stained for 4 min in May-Grunwald solution 1 (Merck, Darmstadt, Germany), followed by 4 min in May–Grunwald solution 2 (May-Grunwald solution 1 diluted 1:1 with aqua bidest.), rinsed in aqua bidest and then stained with Giemsa solution (7.5% dilution derived from Giemsa obtained from Merck, Darmstadt, Germany) for 15 min. Subsequently, the slides were washed twice with aqua bidest, then dried, cleared in xylene and covered with Corbit-Balsam (I. Hecht, Kiel-Hasse, Germany).
2000 polychromatic erythrocytes (PCE) per animal (1000 per slide) were evaluated at 1000-fold magnification under immersion oil for the presence/absence of large and small micronuclei as well as the proportion of PCE among the total erythrocytes. Statistical significance of differences between treated versus untreated groups was evaluated by the one-sided Wilcoxon test (using the program MUKERN). The result is regarded as positive when the following criteria are fulfilled: 1.
2000 PCEs were analyzed for micronuclei per animal.

rat liver cells = test: Comet assay in presence of FPG, liver; conditions: liver, with FPG, 5 days; for TI (%), mean of medians from 2 slides: individual animals
Description: as §1, §2, §3, §4, §5, §6
Those slides which were destined to be treated with the DNA base excision repair enzyme FPG (Sigma Aldrich, Steinheim, Germany) were washed (3 times for 5 min) with FPG buffer (0.04 M HEPES, 0.5 mM EDTA, 0.1 M KCl, pH 8; add shortly before use bovine serum albumin [BSA] to a final concentration of 0.02%). Subsequently 50 µL FPG-enzyme-buffer (prepared shortly prior to use by 30-fold dilution of the following suspension in FPG buffer: 7 µL FPG-enzyme (14 U) and 70 µL glycerol in 623 µL FPG-Puffer, stored at − 80 °C) was pipetted on the slide which was covered with a cover slide and incubated for 30 min at 37 °C while being placed on a humid filter paper. After hardening of the agarose cover slips were removed.
as §7

C=CN1CCCC1=O [NVP, N-vinylpyrrolidone]
Hedgehogs (rat lung cells; NVP-treated lung cells, with or without FPG): 1–7% | Hedgehogs/100 cells (mean ± SD) (rat lung cells; female, 5 ppm inhalation): 2 ± 1 /100 cells | TI (%) (mean ± SD) (rat lung cells; female, 5 ppm inhalation): 1.2 ± 0.34% | TI (%), mean of medians from 2 slides (rat lung cells; female, 5 ppm inhalation): 0.7% and 1.2% and 1.5% and 1.6% and 1.3% | Hedgehogs/100 cells (mean ± SD) (rat lung cells; female, 10 ppm inhalation): 2 ± 2 /100 cells | TI (%), mean of medians from 2 slides (rat lung cells; female, 10 ppm inhalation): 0.4% and 0.9% and 0.5% and 0.6% | Hedgehogs/100 cells (mean ± SD) (rat lung cells; female, 20 ppm inhalation): 2 ± 3 /100 cells | TI (%) (mean ± SD) (rat lung cells; female, 20 ppm inhalation): 1.0 ± 0.32% | TI (%), mean of medians from 2 slides (rat lung cells; female, 20 ppm inhalation): 0.7% and 0.9% and 1.2% and 1.0% and 1.6% | Hedgehogs/100 cells (mean ± SD) (rat lung cells; male, 5 ppm inhalation): 4 ± 3 /100 cells | TI (%), mean of medians from 2 slides (rat lung cells; male, 5 ppm inhalation): 1.8% and 0.6% and 0.7% and 0.8% and 1.9% | Hedgehogs/100 cells (mean ± SD) (rat lung cells; male, 10 ppm inhalation): 7 ± 5 /100 cells | TI (%) (mean ± SD) (rat lung cells; male, 10 ppm inhalation): 1.8 ± 1.94% | TI (%), mean of medians from 2 slides (rat lung cells; male, 10 ppm inhalation): 5.7% and 1.3% and 1.2% and 0.7% and 1.0% and 1.1% | Hedgehogs/100 cells (mean ± SD) (rat lung cells; male, 20 ppm inhalation): 3 ± 1 /100 cells | TI (%) (mean ± SD) (rat lung cells; male, 20 ppm inhalation): 0.6 ± 0.28% | TI (%), mean of medians from 2 slides (rat lung cells; male, 20 ppm inhalation): 0.4% and 0.9% and 0.6% and 0.3% | Mean number of micronuclei in PCE, range over groups ([1]; 5, 10, 20 ppm, male and female rats): 1.4 to 2.9 ‰ | MN/ 1000 PCE Mean ± SD ([1]; 5 ppm inhalation, female): 1.4 ± 0.7 MN/ 1000 PCE | MN/ 1000 PCE Range ([1]; 5 ppm inhalation, female): 0.5–2.5 MN/ 1000 PCE | PCE/1000 Erythrozyten Mean ± SD ([1]; 5 ppm inhalation, female): 629 ± 18 PCE/1000 Erythrozyten | PCE/NCE quotient (%) ([1]; 5 ppm inhalation, female): 99% | MN/ 1000 PCE Mean ± SD ([1]; 5 ppm inhalation, male): 2.6 ± 0.9 MN/ 1000 PCE | MN/ 1000 PCE Range ([1]; 5 ppm inhalation, male): 1.5–4.0 MN/ 1000 PCE | PCE/1000 Erythrozyten Mean ± SD ([1]; 5 ppm inhalation, male): 609 ± 40 PCE/1000 Erythrozyten | PCE/NCE quotient (%) ([1]; 5 ppm inhalation, male): 100% | Increase in micronuclei in the PCE ([1]; 5 ppm, 10 ppm or 20 ppm): no significant increase | MN/ 1000 PCE Mean ± SD ([1]; 10 ppm inhalation, female): 1.7 ± 1.0 MN/ 1000 PCE | MN/ 1000 PCE Range ([1]; 10 ppm inhalation, female): 0.5–3.0 MN/ 1000 PCE | PCE/1000 Erythrozyten Mean ± SD ([1]; 10 ppm inhalation, female): 612 ± 44 PCE/1000 Erythrozyten | PCE/NCE quotient (%) ([1]; 10 ppm inhalation, female): 96% | MN/ 1000 PCE Mean ± SD ([1]; 10 ppm inhalation, male): 2.9 ± 1.9 MN/ 1000 PCE | MN/ 1000 PCE Range ([1]; 10 ppm inhalation, male): 1.5–6.5 MN/ 1000 PCE | PCE/1000 Erythrozyten Mean ± SD ([1]; 10 ppm inhalation, male): 622 ± 33 PCE/1000 Erythrozyten | PCE/NCE quotient (%) ([1]; 10 ppm inhalation, male): 102% | MN/ 1000 PCE Mean ± SD ([1]; 20 ppm inhalation, female): 2.3 ± 0.8 MN/ 1000 PCE | MN/ 1000 PCE Range ([1]; 20 ppm inhalation, female): 1.0–3.0 MN/ 1000 PCE | PCE/1000 Erythrozyten Mean ± SD ([1]; 20 ppm inhalation, female): 615 ± 48 PCE/1000 Erythrozyten | PCE/NCE quotient (%) ([1]; 20 ppm inhalation, female): 97% | MN/ 1000 PCE Mean ± SD ([1]; 20 ppm inhalation, male): 2.0 ± 0.9 MN/ 1000 PCE | MN/ 1000 PCE Range ([1]; 20 ppm inhalation, male): 0.5–3.0 MN/ 1000 PCE | PCE/1000 Erythrozyten Mean ± SD ([1]; 20 ppm inhalation, male): 553 ± 57 PCE/1000 Erythrozyten | PCE/NCE quotient (%) ([1]; 20 ppm inhalation, male): 90% | Micronuclei in normochromatic erythrocytes (NCE) ([1]; after exposure to NVP): no micronuclei were observed | Decrease of the ratio of PCE to NCE ([1]; high-dose (20 ppm) males vs vehicle control): 10% | Hedgehogs/100 cells (mean ± SD) (rat liver cells; female, 5 ppm inhalation): 4 ± 2 /100 cells | TI (%), mean of medians from 2 slides (rat liver cells; female, 5 ppm inhalation): 6.5% and 8.4% and 9.0% and 9.3% and 5.6% and 7.1% | Hedgehogs/100 cells (mean ± SD) (rat liver cells; female, 10 ppm inhalation): 3 ± 2 /100 cells | TI (%) (mean ± SD) (rat liver cells; female, 10 ppm inhalation): 7.9 ± 2.74% | TI (%), mean of medians from 2 slides (rat liver cells; female, 10 ppm inhalation): 5.5% and 10.7% and 5.6% and 5.3% and 9.4% and 11.0% | Hedgehogs/100 cells (mean ± SD) (rat liver cells; female, 20 ppm inhalation): 4 ± 2 /100 cells | TI (%) (mean ± SD) (rat liver cells; female, 20 ppm inhalation): 7.0 ± 1.97% | TI (%), mean of medians from 2 slides (rat liver cells; female, 20 ppm inhalation): 9.2% and 5.2% and 8.3% and 6.3% and 8.6% and 4.4% | Hedgehogs/100 cells (mean ± SD) (rat liver cells; male, 5 ppm inhalation): 1 ± 1 /100 cells | TI (%) (mean ± SD) (rat liver cells; male, 5 ppm inhalation): 5.3 ± 1.09% | TI (%), mean of medians from 2 slides (rat liver cells; male, 5 ppm inhalation): 4.3% and 5.8% and 5.2% and 4.0% and 7.0% and 5.7% | Hedgehogs/100 cells (mean ± SD) (rat liver cells; male, 10 ppm inhalation): 2 ± 1 /100 cells | TI (%) (mean ± SD) (rat liver cells; male, 10 ppm inhalation): 6.1 ± 1.67% | TI (%), mean of medians from 2 slides (rat liver cells; male, 10 ppm inhalation): 8.3% and 7.5% and 3.7% and 4.9% and 6.5% and 5.8% | Hedgehogs/100 cells (mean ± SD) (rat liver cells; male, 20 ppm inhalation): 2 ± 1 /100 cells | TI (%) (mean ± SD) (rat liver cells; male, 20 ppm inhalation): 5.0 ± 1.09% | TI (%), mean of medians from 2 slides (rat liver cells; male, 20 ppm inhalation): 6.8% and 4.4% and 5.0% and 4.7% and 3.6% and 5.6%
